One data set concerns the target T1, hA1AR (Homo sapiens, UniProt P30542).
T1 sequence (P30542 1-326): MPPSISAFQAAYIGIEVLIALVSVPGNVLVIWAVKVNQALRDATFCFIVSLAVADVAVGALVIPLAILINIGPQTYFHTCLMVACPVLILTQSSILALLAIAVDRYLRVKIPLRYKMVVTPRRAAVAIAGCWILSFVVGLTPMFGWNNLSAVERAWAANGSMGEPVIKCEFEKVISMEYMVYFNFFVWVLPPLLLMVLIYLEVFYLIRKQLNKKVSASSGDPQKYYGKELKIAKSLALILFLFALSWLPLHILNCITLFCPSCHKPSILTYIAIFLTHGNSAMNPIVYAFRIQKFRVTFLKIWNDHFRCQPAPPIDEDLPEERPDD
The data set is described as follows: Displacement of specific [3H]CCPA binding at hA1AR expressed in CHO cells. The following applies: [3H]-CCPA displacement, n = 3–6, read-out: Ki hA1 (95% CI). The source says:
(§1) The receptor binding affinities of the synthesized benzothiazolylquinoline derivatives (6a-l) are recapitulated in table 2. The binding affinity of the antagonist was estimated by measuring the displacement of selective radioligands which were formerly bound to the receptor expressed (Chinese hamster ovary cells (CHO) for hA1AR, hA2AAR and hA3AR) at the surface of the cell. In this particular assay, the displacement of: (i) specific [3H] CCPA (2-chloro-N(6)-cyclopentyladenosine) binding at hA1AR, (ii) specific [3H] NECA (5'-N-ethylcarboxamidoadenosine) binding at the hA2AAR, and (iii) [3H] HEMADO (2-(1-hexynyl)-N^6-methyladenosine) at the hA3AR were evaluated. […] Ki (dissociation constant) value of the data was calculated using the Cheng and Prusoff equation [49], with geometric means of at least three experiments including 95% confidence intervals. […] Selectivity of this compound at hA3 with respect to hA1 and hA2 has also been reduced to some extent.
(§2) The human A1, A2A, A2B, and A3ARs were transfected in CHO cells based on the previously reported method. The cells were grown adherently and maintained in Dulbecco's modified Eagle's medium with nutrient mixture F12 (DMEM/F12) without nucleosides, containing 10% foetal calf serum, streptomycin (100 µg ml^−1), penicillin (100 µg ml^−1), L-glutamine (2 mM) and Geneticin (G418, 0.2 mg ml^−1) at 37°C in 5% CO2, 95% air. The membrane preparation was initiated by removal of culture medium followed by washing of the cells with phosphate buffered saline and scraped off T75 flasks in ice-cold hypotonic buffer (5 mM Tris–HCl, 2 mM EDTA, pH7.4). Then the cell suspension was homogenized with a polytron, and the homogenate was centrifuged for 10 min at 1000 g. The supernatant was then centrifuged for 30 min at 100 000 g. The membrane pellet was suspended in (i) 50 mM Tris–HCl buffer, pH 7.4, for A1ARs; (ii) 50 mM Tris–HCl, 10 mM MgCl2 buffer, pH 7.4, for A2AARs; and (iii) 50 mM Tris–HCl, 10 mM MgCl2, 1 mM EDTA buffer, pH 7.4, for A3ARs. The cell suspension was incubated with adenosine deaminase for 30 min at 37°C. Then the membrane preparation was used for binding experiments.
(§3) For radioligand binding at A1 ARs 1 nM [3H] CCPA was used, whereas 30 nM of [3H] NECA were used for A2A and 10 nM of [3H]- HEMADO were used for A3 receptors, respectively. Nonspecific binding of [3H]CCPA was determined in the presence of 1 mM theophylline, when [3H]NECA 100 µM R-PIA was used.
(§4) Inhibitory binding constants, Ki, were calculated from the IC50 values according to the Cheng and Prusoff equation Ki = IC50/(1 + [C*]/KD*), where [C*] is the concentration of the radioligand and KD* its dissociation constant. A weighted nonlinear least-squares curve fitting program LIGAND was also used for computer analysis of inhibition experiments. Potency values (IC50) obtained in cyclic AMP assays were calculated by nonlinear regression analysis using the equation for a sigmoid concentration–response curve (Graph Pad Prism, San Diego, CA, USA). All experimental data are expressed as geometric mean with 95% confidence limits in parentheses of three or four independent experiments performed in duplicate.

Another data set deals with T2, hA2AAR (Homo sapiens, UniProt P29274).
T2 construct: expressed in transfected cells; host or cells: CHO cells (membrane preparation)
T2 sequence (P29274 whole entry): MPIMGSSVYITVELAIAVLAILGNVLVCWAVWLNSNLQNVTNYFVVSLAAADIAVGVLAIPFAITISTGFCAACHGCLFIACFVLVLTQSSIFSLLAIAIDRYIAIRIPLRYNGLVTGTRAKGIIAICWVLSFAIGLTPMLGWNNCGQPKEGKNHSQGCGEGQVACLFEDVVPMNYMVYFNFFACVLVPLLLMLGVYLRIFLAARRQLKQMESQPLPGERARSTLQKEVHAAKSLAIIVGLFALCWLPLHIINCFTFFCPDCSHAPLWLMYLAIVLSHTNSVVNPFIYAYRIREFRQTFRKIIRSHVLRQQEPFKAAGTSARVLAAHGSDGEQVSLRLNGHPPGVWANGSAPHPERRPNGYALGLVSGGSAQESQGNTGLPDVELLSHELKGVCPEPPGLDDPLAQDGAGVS
Put plainly: Displacement of specific [3H]NECA binding at hA2AAR expressed in CHO cells. The following applies: [3H]-NECA displacement, n = 3–6, read-out: Ki hA2A (95% CI).
From the text: as §1, §2, §3, §4

A further data set deals with T3, hA2BAR (Homo sapiens, UniProt P29275).
T3 construct: expressed in transfected cells; host or cells: CHO cells (crude membrane pellet)
T3 sequence (P29275 1-332): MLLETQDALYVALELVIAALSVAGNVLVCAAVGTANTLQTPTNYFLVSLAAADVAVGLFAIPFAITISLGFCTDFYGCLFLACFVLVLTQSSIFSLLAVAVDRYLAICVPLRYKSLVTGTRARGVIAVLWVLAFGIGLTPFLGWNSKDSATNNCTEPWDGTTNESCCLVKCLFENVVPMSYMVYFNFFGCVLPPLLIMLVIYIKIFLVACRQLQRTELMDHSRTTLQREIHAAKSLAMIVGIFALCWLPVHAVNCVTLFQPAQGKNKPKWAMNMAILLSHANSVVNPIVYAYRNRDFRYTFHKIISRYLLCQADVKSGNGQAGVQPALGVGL
Put plainly: Inhibition of NECA-stimulated adenylyl cyclase activity in CHO cells expressing hA2BAR. It counts as biochemical. The following applies: read-out: Ki hA2B (95% CI). Here is the method: as §2
The potency of antagonists at the A2BAR was determined in adenylyl cyclase experiments. For the measurement of adenylyl cyclase activity, only one high speed centrifugation of the homogenate was used. The resulting crude membrane pellet was resuspended in 50 mM Tris–HCl, pH 7.4 and immediately used for the cyclase assay.
as §4

The next data set has as its target T4, hA3AR (Homo sapiens, UniProt P0DMS8).
T4 construct: expressed in transfected cells; host or cells: CHO cells (membrane preparation)
T4 sequence (P0DMS8 1-318): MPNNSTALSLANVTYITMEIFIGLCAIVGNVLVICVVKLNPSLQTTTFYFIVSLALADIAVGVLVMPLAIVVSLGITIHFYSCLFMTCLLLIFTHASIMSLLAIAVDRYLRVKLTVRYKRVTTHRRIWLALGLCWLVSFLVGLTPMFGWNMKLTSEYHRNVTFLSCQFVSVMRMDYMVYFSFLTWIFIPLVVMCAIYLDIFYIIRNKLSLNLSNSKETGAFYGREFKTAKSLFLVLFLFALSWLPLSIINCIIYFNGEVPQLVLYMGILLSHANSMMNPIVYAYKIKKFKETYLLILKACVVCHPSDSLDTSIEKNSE
The data set is described as follows: Displacement of specific [3H]HEMADO binding at hA3AR expressed in CHO cells. To be noted: for Ki: [3H]-HEMADO displacement, CHO cells, n = 3–6, read-out: Ki hA3 (95% CI); for selectivity hA1/A3: ratio of Ki hA1 to Ki hA3; for selectivity hA2A/A3: ratio of Ki hA2A to Ki hA3 as headed.

SMILES strings stand for the structures. Several values for one entry are separate records, joined by “and”; a condition that tells them apart may be missing. Equal entries are not always repeated.

This is an account of results in paper PMC5830763, “Discovery of benzothiazolylquinoline conjugates as novel human A3 receptor antagonists: biological evaluations and molecular docking studies” (Royal Society Open Science, 2018).

Experimental for hA3AR: The human A1, A2A, A2B, and A3ARs were transfected in CHO cells based on the previously reported method [47–50]. The cells were grown adherently and maintained in Dulbecco's modified Eagle's medium with nutrient mixture F12 (DMEM/F12) without nucleosides, containing 10% foetal calf serum, streptomycin (100 µg ml^−1), penicillin (100 µg ml^−1), L-glutamine (2 mM) and Geneticin (G418, 0.2 mg ml^−1) at 37°C in 5% CO2, 95% air. The membrane preparation was initiated by removal of culture medium followed by washing of the cells with phosphate buffered saline and scraped off T75 flasks in ice-cold hypotonic buffer (5 mM Tris–HCl, 2 mM EDTA, pH7.4). Then the cell suspension was homogenized with a polytron, and the homogenate was centrifuged for 10 min at 1000 g. The supernatant was then centrifuged for 30 min at 100 000 g. The membrane pellet was suspended in (i) 50 mM Tris–HCl buffer, pH 7.4, for A1ARs; (ii) 50 mM Tris–HCl, 10 mM MgCl2 buffer, pH 7.4, for A2AARs; and (iii) 50 mM Tris–HCl, 10 mM MgCl2, 1 mM EDTA buffer, pH 7.4, for A3ARs. The cell suspension was incubated with adenosine deaminase for 30 min at 37°C. Then the membrane preparation was used for binding experiments.
For radioligand binding at A1 ARs 1 nM [3H] CCPA was used, whereas 30 nM of [3H] NECA were used for A2A and 10 nM of [3H]- HEMADO were used for A3 receptors, respectively [47–50]. Nonspecific binding of [3H]CCPA was determined in the presence of 1 mM theophylline, when [3H]NECA 100 µM R-PIA was used.
Inhibitory binding constants, Ki, were calculated from the IC50 values according to the Cheng and Prusoff equation Ki = IC50/(1 + [C*]/KD*), where [C*] is the concentration of the radioligand and KD* its dissociation constant [49, 50]. A weighted nonlinear least-squares curve fitting program LIGAND was also used for computer analysis of inhibition experiments. […] All experimental data are expressed as geometric mean with 95% confidence limits in parentheses of three or four independent experiments performed in duplicate.

As to `c1ccc(-c2nc3ccccc3s2)c(OCCOc2cccc3cccnc23)c1` [Compound 6a], the Ki at hA1AR was greater than 100 µM; on hA2AAR, 23.8 µM; on hA2BAR, greater than 30 µM; on hA3AR, ~2.6 µM and 2.6 µM.

Consider `Clc1ccc(OCCCOc2ccccc2-c2nc3ccccc3s2)c2ncccc12` [Compound 6g], for which the Ki on hA1AR was greater than 100 µM; on hA2AAR it was greater than 20 µM; at hA2BAR it was greater than 20 µM; on hA3AR, 4.2 µM.

Take `Clc1cc(I)c(OCCOc2ccccc2-c2nc3ccccc3s2)c2ncccc12` [Compound 6d]: the melting point fell in the range of 125 to 127 °C. Moreover, the Ki at hA1AR was greater than 100 µM. The Ki at hA2AAR is greater than 20 µM. Moreover, at hA2BAR, the Ki is greater than 20 µM. For the same compound, at hA3AR, the Ki was 5.6 µM, the “selectivity hA1/A3” value is reported as greater than 17.85 and the “selectivity hA2A/A3” value is reported as greater than 3.57.

For the compound `Clc1ccc(OCCOc2ccccc2-c2nc3ccccc3s2)c2ncccc12` [Compound 6c], the Ki was 30.8 µM at hA1AR, 32.8 µM at hA2AAR, greater than 20 µM at hA2BAR and 30.4 µM at hA3AR.

Take `c1ccc(-c2nc3ccccc3s2)c(OCCCOc2cccc3cccnc23)c1` [Compound 6e]: the Ki at hA1AR is greater than 100 µM; at hA2AAR it was greater than 20 µM; on hA2BAR, greater than 30 µM; at hA3AR, 3.8 µM.

In the case of `Clc1cc(I)c(OCCCCOc2ccccc2-c2nc3ccccc3s2)c2ncccc12` [Compound 6l], the Ki is greater than 100 µM on hA1AR, greater than 20 µM on hA2AAR, greater than 30 µM on hA2BAR and 3.6 µM on hA3AR.

Take `Brc1cc(Br)c2cccnc2c1OCCCOc1ccccc1-c1nc2ccccc2s1` [Compound 6f]: the Ki was greater than 100 µM at hA1AR, greater than 20 µM at hA2AAR, greater than 30 µM on hA2BAR and 6.2 µM on hA3AR.

As for `Brc1cc(Br)c2cccnc2c1OCCCCOc1ccccc1-c1nc2ccccc2s1` [Compound 6j], the Ki on hA1AR is greater than 100 µM; on hA2AAR, greater than 20 µM; on hA2BAR, greater than 20 µM; on hA3AR it was 6.4 µM.

Take `Clc1cc(I)c(OCCCOc2ccccc2-c2nc3ccccc3s2)c2ncccc12` [Compound 6h]: the Ki is greater than 100 µM at hA1AR, greater than 20 µM at hA2AAR, greater than 20 µM on hA2BAR and 6.1 µM at hA3AR.

In the case of `Clc1ccc(OCCCCOc2ccccc2-c2nc3ccccc3s2)c2ncccc12` [Compound 6k], the inhibition constant (Ki) at hA1AR was greater than 100 µM; at hA2AAR, greater than 20 µM; on hA2BAR, greater than 10 µM; on hA3AR, 3.7 µM.

Turning to `Brc1cc(Br)c2cccnc2c1OCCOc1ccccc1-c1nc2ccccc2s1` [Compound 6b], the melting point fell in the range of 110 to 112 °C. Moreover, the Ki at hA1AR was greater than 100 µM. For the same compound, the Ki at hA2AAR came to 17.2 µM. Moreover, the inhibition constant (Ki) on hA2BAR is greater than 20 µM. Also, on hA3AR, the Ki is 3.2 µM, the “selectivity hA1/A3” value is greater than 31.25 and the “selectivity hA2A/A3” value is greater than 6.25.

As for `c1ccc(-c2nc3ccccc3s2)c(OCCCCOc2cccc3cccnc23)c1` [Compound 6i], the Ki on hA1AR is 29.7 µM; on hA2AAR it was 34.9 µM; on hA2BAR, greater than 20 µM; at hA3AR, 25.4 µM.

The term Ki denotes the dissociation constant of the complex between target and ligand, obtained from inhibition or displacement. The term melting point denotes the temperature, or range, at which the solid turns liquid.
